Test results published in patent US20260184702A1, “SYNTHESIS, PHARMACOLOGY AND USE OF NEW WATER-SOLUBLE AND SELECTIVE FMS-LIKE TYROSINE KINASE3 (FLT3) INHIBITORS” (Universität Regensburg, priority 2022, published 2026).
≈ marks a conversion by molar mass, not a printed value. Counter-ions that a name gives are not always drawn. Like-named read-outs stand apart in the source and are kept apart here.

Legend:
[1] = Solubility test by UV-Vis spectroscopy of saturated solutions; format: physicochemical; details: saturated solution; for solubility: thermodynamic from solid
Procedure: All UV-Vis measurements were carried out with an Agilent Cary 60 UV-Vis 2.00 between 800-200 nm. The absorbance was measured with a scan rate of 300.0 nm/min, a data interval of 0.50 nm and an UV-Vis Average Time of 0.10 s. For all measurements a cuvette with 10 mm light path was used. A calibration curve was plotted from several different concentrations and the solubility of the respective compound was determined by measuring the absorbance of a diluted saturated solution. As a blank curve a mixture of ultrapure water and ethanol in a ratio of 1:1 or 5:95 was recorded. For the calibration curve a 100 μM or a 10 μM solution of the compound in an ultrapure water:ethanol (1:1) or (5:95)-mixture was prepared and diluted to obtain at least 6 concentrations. […] The supernatant was taken using a syringe and filtered through a syringe filter (RC Membrane). The saturated solution was diluted with ultrapure water and ethanol to obtain an appropriate concentration in a water:ethanol (1:1) or (5:95)-mixture. The long wave absorbance maximum was used for determination of the solubility (mean values, determination in triplicate). […] By plotting the concentration of the solution against the absorbance values at the previously determined wavelength maximum a calibration curve was obtained (FIG. 1B).

[2] = as above; format: physicochemical; details: solvent DMSO
[3] = molecular target: T1, human FLT3-ITD (Homo sapiens, UniProt P36888); test: Enzymatic kinase assay FLT3 (ITD), 10-dose IC50 mode (Reaction Biology); format: biochemical
T1 sequence (P36888 1-993): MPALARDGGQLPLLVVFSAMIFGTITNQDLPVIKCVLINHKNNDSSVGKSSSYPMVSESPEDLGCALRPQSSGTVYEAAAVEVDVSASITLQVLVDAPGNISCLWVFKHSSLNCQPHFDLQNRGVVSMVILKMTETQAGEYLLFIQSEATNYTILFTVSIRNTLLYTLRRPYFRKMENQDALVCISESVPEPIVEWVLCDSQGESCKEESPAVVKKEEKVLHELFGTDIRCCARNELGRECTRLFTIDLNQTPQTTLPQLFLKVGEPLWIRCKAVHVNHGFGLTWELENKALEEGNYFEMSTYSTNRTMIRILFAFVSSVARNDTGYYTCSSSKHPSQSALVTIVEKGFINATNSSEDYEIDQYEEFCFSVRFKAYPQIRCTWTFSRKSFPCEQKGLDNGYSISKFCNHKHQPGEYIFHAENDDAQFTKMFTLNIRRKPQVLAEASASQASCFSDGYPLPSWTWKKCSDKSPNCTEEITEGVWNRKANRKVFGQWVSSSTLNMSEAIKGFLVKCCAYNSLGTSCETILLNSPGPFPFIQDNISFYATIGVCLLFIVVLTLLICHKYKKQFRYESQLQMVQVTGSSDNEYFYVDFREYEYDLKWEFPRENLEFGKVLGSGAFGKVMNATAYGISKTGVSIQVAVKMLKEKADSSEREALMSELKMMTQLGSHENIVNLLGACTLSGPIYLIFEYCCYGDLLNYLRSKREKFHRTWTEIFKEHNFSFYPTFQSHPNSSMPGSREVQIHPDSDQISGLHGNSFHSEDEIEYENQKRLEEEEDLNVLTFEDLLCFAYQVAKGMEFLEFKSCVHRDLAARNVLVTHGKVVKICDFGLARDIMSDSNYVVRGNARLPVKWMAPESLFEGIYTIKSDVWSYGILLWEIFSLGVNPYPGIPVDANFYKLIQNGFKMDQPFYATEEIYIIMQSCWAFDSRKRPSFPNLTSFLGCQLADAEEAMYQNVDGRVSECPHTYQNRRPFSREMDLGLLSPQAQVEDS

[4] = tested on: subcutaneous MV4-11 CDX model; test: In vivo efficacy study in subcutaneous MV4-11 CDX model in NOD/SCID mice; details: 50 mg/kg po daily 5 days
[5] = ethanol, organic solvent or mixture, ethanol, read-out: Solubility Ethanol
[6] = ultrapure water, water, ultrapure water, read-out: Solubility Water
[7] = 10 μM ATP; read-out: IC50 FLT3 (ITD)
[8] = ethanol, 2,2,2-trifluoroacetate
[9] = read-out: IC50 FLT3 (ITD); 10 μM ATP

In the case of `CC(C)(C)c1cc(NC(=O)Nc2ccc3oc(C(=O)c4cc5c(CN6CCOCC6)c(O)ccc5[nH]4)cc3c2)no1` [Compound 30b, 1-(5-(tert-Butyl)isoxazol-3-yl)-3-(2-(5-hydroxy-4-(morpholinomethyl)-1H-indole-2-carbonyl)benzofuran-5-yl)urea 2,2,2-trifluoroacetate], the solubility [1, 5] is reported as 2570 µg/mL (≈ 4610 µM), the solubility [1, 6] is reported as 140 µg/mL (≈ 251 µM) and the “Solubility DMSO” value [2] is reported as “Soluble”.
Compound `CC(C)(C)c1cc(NC(=O)Nc2ccc3oc(C(=O)c4cc5c(CN6CCOCC6)c(O)ccc5[nH]4)cc3c2)no1` [Compound 30c, 1-(5-(tert-Butyl)isoxazol-3-yl)-3-(2-(5-hydroxy-4-(morpholinomethyl)-1H-indole-2-carbonyl)benzofuran-5-yl)urea hydrochloride] has an IC50 [3, 7] of 2 nM.
For `CC(C)(C)c1cc(NC(=O)Nc2ccc3oc(C(=O)c4cc5c(CN6CCCCC6)c(O)ccc5[nH]4)cc3c2)no1` [Compound 31a, 1-(5-(tert-Butyl)isoxazol-3-yl)-3-(2-(5-hydroxy-4-(piperidin-1-ylmethyl)-1H-indole-2-carbonyl)benzofuran-5-yl)urea], the solubility [1, 5] was 2200 µg/mL (≈ 3960 µM), the solubility [1, 6] was under 100 µg/mL and the “Solubility DMSO” value [2] was “Soluble”.
With `CC(C)(C)c1cc(NC(=O)Nc2ccc3oc(C(=O)c4cc5c(CN6CCCCC6)c(O)ccc5[nH]4)cc3c2)no1` [Compound 31b, 1-(5-(tert-Butyl)isoxazol-3-yl)-3-(2-(5-hydroxy-4-(piperidin-1-ylmethyl)-1H-indole-2-carbonyl)benzofuran-5-yl)urea 2,2,2-trifluoroacetate] the “Solubility Ethanol” value [1, 8] was 1890 µg/mL (≈ 3400 µM).
For `CC(C)(C)c1cc(NC(=O)Nc2ccc3oc(C(=O)c4cc5c(CN6CCCC6)c(O)ccc5[nH]4)cc3c2)no1` [Compound 32a, 1-(5-(tert-Butyl)isoxazol-3-yl)-3-(2-(5-hydroxy-4-(pyrrolidin-1-ylmethyl)-1H-indole-2-carbonyl)benzofuran-5-yl)urea], the “Solubility Ethanol” value ([1]; ethanol) was 910 µg/mL (≈ 1680 µM), the solubility [1, 6] was under 100 µg/mL and the “Solubility DMSO” value [2] was “Soluble”.
With `CC(C)(C)c1cc(NC(=O)Nc2ccc3oc(C(=O)c4cc5c(CN6CCCC6)c(O)ccc5[nH]4)cc3c2)no1` [Compound 32b, 1-(5-(tert-Butyl)isoxazol-3-yl)-3-(2-(5-hydroxy-4-(pyrrolidin-1-ylmethyl)-1H-indole-2-carbonyl)benzofuran-5-yl)urea 2,2,2-trifluoroacetate] the “Solubility Ethanol” value [1, 8] was 2400 µg/mL (≈ 4430 µM).
`CN(C)Cc1c(O)ccc2[nH]c(C(=O)c3cc4cc(NC(=O)Nc5cc(C(C)(C)C)on5)ccc4o3)cc12` [Compound 34a, 1-(5-tert-Butylisoxazol-3-yl)-3-(2-(4-((dimethylamino)methyl)-5-hydroxy-1H-indole-2-carbonyl)benzofuran-5-yl)urea] gave an IC50 [3, 7] of 1.51 nM.
For `CC(C)(C)c1cc(NC(=O)Nc2ccc3oc(C(=O)c4cc5c(CN6CCOCC6)c(OC(=O)N6CCC(N7CCCCC7)CC6)ccc5[nH]4)cc3c2)no1` [Compound 38a, 2-(5-(3-(5-(tert-Butyl)isoxazol-3-yl)ureido)benzofuran-2-carbonyl)-4-(morpholinomethyl)-1H-indol-5-yl[1,4′-bipiperidine]-1′-carboxylate], the solubility [1, 5] was 890 µg/mL (≈ 1180 µM) and the solubility [1, 6] was under 100 µg/mL.
For `CC(C)(C)c1cc(NC(=O)Nc2ccc3oc(C(=O)c4cc5c(CN6CCOCC6)c(OC(=O)N6CCC(N7CCCCC7)CC6)ccc5[nH]4)cc3c2)no1` [Compound 38c, 2-(5-(3-(5-(tert-Butyl)isoxazol-3-yl)ureido)benzofuran-2-carbonyl)-4-(morpholinomethyl)-1H-indol-5-yl [1,4′-bipiperidine]-1′-carboxylate Dihydrochloride], the IC50 ([3]; read-out: IC50 FLT3 (ITD); 10 μM ATP; Dihydrochloride) was 1.51 nM.
In the case of `CC(C)(C)c1cc(NC(=O)Nc2ccc3oc(C(=O)c4cc5c(CN6CCCCC6)c(OC(=O)N6CCC(N7CCCCC7)CC6)ccc5[nH]4)cc3c2)no1` [Compound 39a, 2-(5-(3-(5-(tert-Butyl)isoxazol-3-yl)ureido)benzofuran-2-carbonyl)-4-(piperidin-1-ylmethyl)-1H-indol-5-yl [1,4′-bipiperidine]-1′-carboxylate], the solubility [1, 5] is reported as 1590 µg/mL (≈ 2120 µM), the solubility [1, 6] is reported as under 100 µg/mL and the IC50 [3, 9] is reported as 1.14 nM.
Work on `CC(C)(C)c1cc(NC(=O)Nc2ccc3oc(C(=O)c4cc5c(CN6CCCC6)c(OC(=O)N6CCC(N7CCCCC7)CC6)ccc5[nH]4)cc3c2)no1` [Compound 40a, 2-(5-(3-(5-(tert-Butyl)isoxazol-3-yl)ureido)benzofuran-2-carbonyl)-4-(pyrrolidin-1-ylmethyl)-1H-indol-5-yl [1,4′-bipiperidine]-1′-carboxylate] yielded a solubility [1, 5] of 1240 µg/mL (≈ 1690 µM), a solubility [1, 6] of under 100 µg/mL and an IC50 [3, 9] of 1.15 nM.
For `CN1CCN(Cc2c(OC(=O)N3CCC(N4CCCCC4)CC3)ccc3[nH]c(C(=O)c4cc5cc(NC(=O)Nc6cc(C(C)(C)C)on6)ccc5o4)cc23)CC1` [Compound 41c, 2-(5-(3-(5-(tert-Butyl)isoxazol-3-yl)ureido)benzofuran-2-carbonyl)-4-((4-methylpiperazin-1-yl)methyl)-1H-indol-5-yl [1,4′-bipiperidine]-1′-carboxylate Trihydrochloride], the IC50 ([3]; read-out: IC50 FLT3 (ITD); 10 μM ATP; Trihydrochloride) was 0.5 nM.
For `CN(C)Cc1c(OC(=O)N2CCC(N3CCCCC3)CC2)ccc2[nH]c(C(=O)c3cc4cc(NC(=O)Nc5cc(C(C)(C)C)on5)ccc4o3)cc12` [Compound 42a, 2-(5-(3-(5-(tert-Butyl)isoxazol-3-yl)ureido)benzofuran-2-carbonyl)-4-((dimethylamino)methyl)-1H-indol-5-yl [1,4′-bipiperidine]-1′-carboxylate], the IC50 [3, 9] was 1.23 nM.
With `CC(C)(C)OC(=O)N1CCN(Cc2c(O)ccc3[nH]c(C(=O)c4cc5cc(NC(=O)Nc6cc(C(C)(C)C)on6)ccc5o4)cc23)CC1` [Compound 54a] the solubility [1, 5] was 900 µg/mL (≈ 1370 µM), the solubility [1, 6] was under 100 µg/mL and the “Solubility DMSO” value [2] was “Soluble”.
In the case of `CCN1CCN(Cc2c(O)ccc3[nH]c(C(=O)c4cc5cc(NC(=O)Nc6cc(C(C)(C)C)on6)ccc5o4)cc23)CC1` [Compound 69b], the “Solubility Ethanol” value ([1]; ethanol) is reported as 4410 µg/mL (≈ 7540 µM), the “Solubility Water” value ([1]; ultrapure water) is reported as 100 µg/mL (≈ 171 µM) and the “Solubility DMSO” value [2] is reported as “Soluble”.
For `CC(C)N1CCN(Cc2c(O)ccc3[nH]c(C(=O)c4cc5cc(NC(=O)Nc6cc(C(C)(C)C)on6)ccc5o4)cc23)CC1` [Compound 70b, 1-(5-(tert-Butyl)isoxazol-3-yl)-3-(2-(5-hydroxy-4-((4-isopropylpiperazin-1-yl)methyl)-1H-indole-2-carbonyl)benzofuran-5-yl)urea bis(2,2,2-trifluoroacetate)], the “Solubility Ethanol” value ([1]; ethanol, bis(2,2,2-trifluoroacetate)) was 1820 µg/mL (≈ 3040 µM) and the “Solubility Water” value ([1]; ultrapure water, bis(2,2,2-trifluoroacetate)) was 370 µg/mL (≈ 618 µM).
With `CO[C@@H]1[C@H](N(C)C(=O)c2ccccc2)C[C@H]2O[C@]1(C)n1c3ccccc3c3c4c(c5c6ccccc6n2c5c31)C(=O)NC4` [Midostaurin, reference compound] the “first death(s) (day of study)” value [4] was 520000 s, the “second death (day of study)” value [4] was 9 days and the “number of living subjects, day of study 5” value ([4]; 5 mice) was 5. For the same compound, the “number of living subjects, day of study 6” value ([4]; 5 mice) was 4, the “number of living subjects, day of study 8” value ([4]; 5 mice) was 4 and the “number of living subjects, day of study 13” value ([4]; 5 mice) was 3. The “number of living subjects, day of study 26” value ([4]; 5 mice) was 3 and the “number of living subjects, day of study 36” value ([4]; 5 mice) was 0.
